Experimental data: patent EP0733369A1, “Protease inhibitors, a DNA construct for the expression of a protease and a process for measuring proteases and/or protease inhibitors” (Stichting REGA V.Z.W., priority 1995, dated 1996)
“Also recorded” adds a separate entry of the source. Where a name gives a salt, the structure may show the parent alone.

Legend:
[1] = biological target: T1, gelatinase B from neutrophils (Homo sapiens, UniProt P14780); experiment: gelatinase (inhibitor) microtiter plate assay with biotinylated gelatin; format: biochemical; design: endogenous in cells; host or cells: human neutrophils stimulated with lipopolysaccharide; conditioned medium; conditions: for gelatinase B inhibitory activity in the plate assay (in words): qualitative statements
Description: The measurement of gelatinase activity was based on the detection of non-degraded biotinylated gelatin with a streptavidin-peroxidase conjugate. This test is based on the biotin-avidin method described by Sorbi et al. (25) but modified to a one plate assay (schematically represented in Fig. 1.). Gelatin (1mg/ml) was dissolved in 0.1 M sodium bicarbonate pH 8.3 by heating to 40°C. Biotin-N-hydroxysuccinimide ester was dissolved in dimethylsulfoxide (Me2SO) and was added to the gelatin in a 15-fold molar excess. The mixture was allowed to react overnight at 4°C and the biotinylated gelatin was then dialyzed against phosphate buffered saline (PBS). Neutrophil granulocyte (Neu) medium was collected from human neutrophils after stimulation with lipopolysaccharide (1µg/ml) overnight at 37°C in Minimal Essential Medium. Cells were removed by 10 min centrifugation at 1000 g. Purified gelatinase was obtained by one-step affinity chromatography of neutrophil medium on a gelatin-sepharose column as described (8).
Modified flat bottom 96-well ELISA plates were coated overnight with 0.5 µg/ml avidin in distilled water. The plates were then blocked with 0.3% bovine serum albumin (BSA, Sigma) in PBS for 1 hour at 37°C. Biotinylated gelatin was diluted to 50 µg/ml and 100µl was added to the avidin-coated wells. After incubation for one hour at 20°C, the plate was rinsed with PBS. Medium containing the secreted gelatinases from human neutrophils (dilution range 1/3-1/3^11) and the inhibitors were diluted in incubation buffer (50 mM Tris-HCl pH 7.5, 10 mM CaCl2, 0.02% (W/V) NaN3, 1% (V/V) Triton X-100) and 100 µl of each were mixed. 190 µl of the mixture was added to the gelatin-coated plates and allowed to digest the gelatin overnight at 37°C. The plates were then washed with PBS and each well was incubated with 100 µl peroxidase-conjugated-streptavidin at a 1:2000 dilution for 1 hour at 37°C. After rinsing the plate, the ABTS substrate was added (0.5 mg/ml solution containing 0.1 M citric acid, 0.2 M Na2HPO4, pH 4.3, 0.07 µl/ml 30% H2O2) and the optical density was read at 405 nm after 10 min. incubation at room temperature. Additional information on published test systems used here for comparison.
Gelatin is biotinylated and bound to avidin-coated microtiter plates. By addition of gelatinases the number of free biotin groups decreases and proportionally less streptavidin-peroxidase is bound to the residual substrate. Bound streptavidin-peroxidase activity is measured spectrophotometrically by reaction of peroxide with ABTS. Inhibition of gelatinase is obtained by the addition of inhibitor to a known amount of gelatinase prior to application to the plates. The peroxidase activity increases proportionally with the inhibitory activity.
Plates were first coated with 10µg/ml avidin and 50µg/ml biotinylated gelatin (theoretically saturating the avidin binding sites). As the sensitivity of the assay is dependent on the detection of the minimal amount of degraded biotinylated gelatin, we investigated wether decreasing the amount of biotin-gelatin (50 µg/ml-23 ng/ml) bound to the avidin-coated (10µg/ml) plate increased the sensitivity of the assay. […] Thus it was verified whether a decrease in the avidin coating could make the assay more sensitive (Fig. 2). […] In all further examples plates were coated with 0.5 µg/ml avidin and 50 µg/ml gelatin-biotin.
The titration curves of gelatinase inhibition were always related to a blanc curve and this for enzyme concentrations within the slope of the curve (vertical dotted lines Fig. 3). The decrease in enzyme activity to which the inhibitor-incubated sample corresponded was defined as the inhibition factor (IF).

[2] = biological target: T1, gelatinase B from neutrophils; experiment: zymography inhibition assay, inhibitor in developing buffer; format: biochemical; design: The 92 kDa neutrophil gelatinase is indicated with an arrowhead; endogenous in cells; host or cells: human neutrophils; purified from conditioned medium on gelatin-Sepharose; conditions: qualitative statements
Description: Quantitative zymography was performed as described (7,8). Briefly, 40 µl of loading buffer was added to 40 µl of each sample and applied on 7.5% polyacrylamide gels which had been co-polymerised with 0.1% (w/v) gelatin. Stacking gels contained 5% polyacrylamide. The gels were run at 4°C for 16h at 90V. The gels were then incubated in washing buffer (50 mM Tris-HCl pH 7.5, 10mM CaCl2, O.O2% (W/V) NaN3, 2.5% (v/v) Triton X-100) at room temperature, 2x20 min to remove sodium dodecyl sulfate and overnight in developing buffer (50 mM Tris-HCl pH 7.5, 10mM CaCl2, O.O2% (w/v) NaN3, 1% (v/v) Triton X-100) at 37°C. The gels were then stained in Coomassie brilliant blue R-250 and destained in methanol/acetic acid. The sites of gelatinase activity appeared as unstained bands on a blue background and were quantified by computerised image analysis through scanning densitometry with a PDI scanner (Pharmacia, Belgium) and the PDI software package. For inhibition experiments, the inhibitors were dissolved in the developing buffer at the appropriate concentration. […] The enzyme activity was developed by staining of the substrate with Coomassie blue and quantification of the substrate digestion by scanning densitometry. […] The enzyme activity was developed by staining of the substrate with Coomassie blue and quantification of the substrate digestion by scanning densitometry. […]

[3] = tetracycline concentration 0,83 mg/ml
[4] = tetracycline concentration 1.67 mg/ml
[5] = tetracycline concentration 3.33 mg/ml
[6] = tetracycline concentration 3.33 mg/ml, HCl

T1 sequence (P14780 94-707): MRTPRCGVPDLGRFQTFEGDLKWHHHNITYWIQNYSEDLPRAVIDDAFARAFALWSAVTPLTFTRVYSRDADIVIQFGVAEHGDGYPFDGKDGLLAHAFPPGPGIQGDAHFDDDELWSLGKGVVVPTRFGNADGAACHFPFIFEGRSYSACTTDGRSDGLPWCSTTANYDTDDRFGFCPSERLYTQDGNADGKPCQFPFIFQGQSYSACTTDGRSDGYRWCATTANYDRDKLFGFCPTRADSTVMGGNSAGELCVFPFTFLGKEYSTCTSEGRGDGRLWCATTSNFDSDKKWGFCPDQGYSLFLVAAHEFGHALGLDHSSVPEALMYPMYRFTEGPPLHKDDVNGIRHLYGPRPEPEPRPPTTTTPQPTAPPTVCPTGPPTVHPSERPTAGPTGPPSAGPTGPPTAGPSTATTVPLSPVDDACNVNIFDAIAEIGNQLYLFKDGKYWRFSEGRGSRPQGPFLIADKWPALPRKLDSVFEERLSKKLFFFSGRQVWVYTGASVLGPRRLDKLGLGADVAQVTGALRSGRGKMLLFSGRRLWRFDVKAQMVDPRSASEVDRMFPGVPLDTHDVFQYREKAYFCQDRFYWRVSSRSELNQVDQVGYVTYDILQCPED

Compound	Inhibition factor (IF) [1, 3]	Inhibition factor (IF) [1, 4]	Inhibition factor (IF) [1, 5]	gelatinase B inhibitory activity in the plate assay (in words) [1]	further results
CN(C)[C@@H]1C(O)=C(C(N)=O)C(=O)[C@@]2(O)C(O)=C3C(=O)c4c(O)cccc4C[C@H]3C[C@@H]12.Cl [6-deoxy-6-demethyltetracycline HCl]	3	5	8	–	–
CN(C)[C@@H]1C(O)=C(C(N)=O)C(=O)[C@@]2(O)C(O)=C3C(=O)c4c(O)cccc4[C@@](C)(O)[C@H]3C[C@@H]12 [tetracycline HCl]	–	3	8	–	–
CN(C)[C@@H]1C(O)=C(C(N)=O)C(=O)[C@@]2(O)C(O)=C3C(=O)c4c(O)ccc(Cl)c4[C@@](C)(O)[C@H]3C[C@@H]12 [chlortetracycline HCl]	9	27	45	–	gelatinase B inhibitory activity in the plate assay (in words) ([1]; listed as Chlortetracycline HCl, HCl): most potent inhibitor; gelatinase B inhibitory activity in the plate assay (in words) ([1]; listed as Chlortetracycline, HCl): more active as a gelatinase inhibitor than the antibiotically more potent minocycline; also recorded: much more active than tetracycline; also recorded: most active
C=C1c2cccc(O)c2C(=O)C2=C(O)[C@]3(O)C(=O)C(C(N)=O)=C(O)[C@@H](N(C)C)[C@@H]3[C@@H](O)[C@H]12 [metacycline HCl]	3	8	27	very active	–
CN(C)[C@@H]1C(O)=C(C(N)=O)C(=O)[C@@]2(O)C(O)=C3C(=O)c4c(O)ccc(Cl)c4[C@@H](O)[C@H]3C[C@@H]12 [demethylchlortetracycline HCl]	–	–	–	not active	–
C[C@H]1c2cccc(O)c2C(=O)C2=C(O)[C@]3(O)C(=O)C(C(N)=O)=C(O)[C@@H](N(C)C)[C@@H]3[C@@H](O)[C@@H]21 [doxycycline hyclate]	–	–	–	not active	–
Cc1c2c(c(O)c3c(O)ccc(Cl)c13)C(=O)C1(O)C(O)=C(C(N)=O)C(=O)C(N(C)C)C1C2 (centres unmarked) [4-epianhydrochlortetracycline HCl]	–	–	–	less active	Inhibition factor (IF) [1, 6]: 3
7-aminominocycline HCl	–	–	precipitation	–	–
CN(C)c1ccc(O)c2c1C[C@H]1C[C@H]3[C@H](N(C)C)C(O)=C(C(N)=O)C(=O)[C@@]3(O)C(O)=C1C2=O [minocycline HCl]	–	3	8	–	inhibition of gelatinase B on zymography (in words) [2]: inhibits gelatinase B in a dose-dependent way; gelatinase B inhibitory activity in the plate assay (in words) ([1]; listed as minocyclin, HCl): active as an inhibitor; gelatinase B inhibitory activity in the plate assay (in words) ([1]; listed as minocycline, HCl): confirmed in the plate assay; also recorded: active
Cc1c2c(c(O)c3c(O)ccc(Cl)c13)C(=O)C1(O)C(O)=C(C(N)=O)C(=O)C(N(C)C)C1C2 (centres unmarked) [anhydrochlortetracycline HCl]	–	–	–	–	Inhibition factor (IF) ([1]; tetracycline concentration 1.67 mg/ml, HCl): 2; Inhibition factor (IF) [1, 6]: 6
CN(C)C1C(=O)C(C(N)=O)=C(O)C2(O)C(=O)C3=C(O)c4c(O)cccc4C(C)(O)C3C(O)C12 (centres unmarked) [4-epioxytetracyline base]	–	3	20	more active	–
CN(C)[C@@H]1C(=O)C(C(N)=O)=C(O)[C@@]2(O)C(=O)C[C@@H]([C@]3(C)OC(=O)c4c(O)ccc(Cl)c43)C[C@@H]12 [isochlortetracycline HCl]	–	–	3	–	–
CN(C)C1C(=O)C(C(N)=O)=C(O)C2(O)C(=O)C3=C(O)c4c(O)ccc(Cl)c4C(C)(O)C3CC12 (centres unmarked) [4-epichlortetracycline HCl]	3	9	precipitation	less active	–
4-epitetracycline HCl	–	3	–	–	–
Cc1c2c(c(O)c3c(O)cccc13)C(=O)C1(O)C(O)=C(C(N)=O)C(=O)C(N(C)C)C1C2 (centres unmarked) [4-epianhydrotetracycline HCl]	2	3	precipitation	more active	–
CN(C)c1ccc(O)c2c1C[C@H]1C[C@H]3[C@@H](N(C)C)C(O)=C(C(N)=O)C(=O)[C@@]3(O)C(O)=C1C2=O [4-epiminocycline HCl]	–	–	3	less active	–
